Patent publication US20230416227A1, “PLASMA KALLIKREIN INHIBITORS” (Merck Sharp & Dohme LLC, priority 2020, published 2023)

Tests used:
human factor XIa = human factor XIa (Homo sapiens, UniProt P03951); assay: Factor XIa Assay; type: biochemical; settings: human factor XIa 0.04 nM, substrate GPR-AFC, 30 min pre-incubation at 25° C., pH 7.4; read-out: FXIa IC50
Protocol: The effectiveness of a compound of the present invention as an inhibitor of Coagulation factor XIa can be determined using a relevant purified serine protease, and an appropriate synthetic substrate. The rate of hydrolysis of the chromogenic or fluorogenic substrate by the relevant serine protease was measured both in the absence and presence of compounds of the present invention. Assays were conducted at rt or at 37° C. […] A decrease in the rate of fluorescence change in the presence of inhibitor is indicative of enzyme inhibition. Such methods are known to one skilled in the art. The results of this assay are expressed as the half-maximal inhibitory concentrations (IC50), or the inhibitory constant, Ki.
Compounds were pre-incubated for 30 min at 25° C. with human (0.04 nM) factor XIa in 50 mM HEPES buffer with 150 mM sodium chloride, 5 mM calcium chloride, 0.1% PEG 8000, pH 7.4. factor XIa enzymatic activity was determined by addition of the substrate glycine-proline-arginine-7-amido-4-trifluoromethylcoumarin (GPR-AFC) and measurement of the fluorescence at 400/505 nm after a 60 min incubation at 25° C. The % inhibition for each data point was calculated from the data and analyzed using the log (inhibitor) vs. response four parameters equation to determine the half-maximal inhibitory concentrations (IC50). The IC50 were converted to equilibrium inhibitory constants (Ki) using the Cheng-Prusoff equation.

Human plasma kallikrein = target: T1, Human plasma kallikrein (Homo sapiens, UniProt P03952); assay: Plasma Kallikrein Assay; type: biochemical; settings: purified Human plasma kallikrein 0.5 nM, substrate Acetyl-K-P-R-AFC, pH 7.4
T1 construct: yields a heavy chain (371 amino acids) and a light chain (248 amino acids); purchased Enzyme Research Laboratories
T1 sequence (P03952 391-638 limits assumed): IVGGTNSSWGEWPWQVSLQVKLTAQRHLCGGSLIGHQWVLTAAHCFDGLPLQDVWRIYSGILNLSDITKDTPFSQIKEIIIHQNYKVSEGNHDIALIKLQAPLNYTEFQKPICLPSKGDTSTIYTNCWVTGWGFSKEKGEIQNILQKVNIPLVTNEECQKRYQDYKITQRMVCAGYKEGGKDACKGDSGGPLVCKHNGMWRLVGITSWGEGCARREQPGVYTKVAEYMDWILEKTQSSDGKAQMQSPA
T1 sequence (P03952 20-390 partner limits assumed): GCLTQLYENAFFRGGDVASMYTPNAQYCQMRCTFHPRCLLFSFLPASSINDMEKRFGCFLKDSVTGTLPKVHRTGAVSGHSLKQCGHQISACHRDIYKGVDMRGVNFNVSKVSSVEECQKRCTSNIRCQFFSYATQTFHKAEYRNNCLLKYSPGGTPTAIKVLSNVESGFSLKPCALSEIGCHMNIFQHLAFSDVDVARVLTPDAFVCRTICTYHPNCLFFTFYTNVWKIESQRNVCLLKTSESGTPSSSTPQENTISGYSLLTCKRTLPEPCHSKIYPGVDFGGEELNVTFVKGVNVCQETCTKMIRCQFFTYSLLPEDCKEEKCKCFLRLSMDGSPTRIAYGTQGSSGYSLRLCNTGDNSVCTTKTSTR

human factor XIa, sequence (P03951 388-625 limits assumed): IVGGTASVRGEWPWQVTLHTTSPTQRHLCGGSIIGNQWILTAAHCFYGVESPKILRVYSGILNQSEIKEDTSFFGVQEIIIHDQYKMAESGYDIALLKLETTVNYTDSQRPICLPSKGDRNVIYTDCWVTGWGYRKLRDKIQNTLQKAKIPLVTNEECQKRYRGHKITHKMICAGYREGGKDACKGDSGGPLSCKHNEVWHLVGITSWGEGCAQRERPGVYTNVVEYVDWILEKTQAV
human factor XIa, sequence (P03951 19-387 partner limits assumed): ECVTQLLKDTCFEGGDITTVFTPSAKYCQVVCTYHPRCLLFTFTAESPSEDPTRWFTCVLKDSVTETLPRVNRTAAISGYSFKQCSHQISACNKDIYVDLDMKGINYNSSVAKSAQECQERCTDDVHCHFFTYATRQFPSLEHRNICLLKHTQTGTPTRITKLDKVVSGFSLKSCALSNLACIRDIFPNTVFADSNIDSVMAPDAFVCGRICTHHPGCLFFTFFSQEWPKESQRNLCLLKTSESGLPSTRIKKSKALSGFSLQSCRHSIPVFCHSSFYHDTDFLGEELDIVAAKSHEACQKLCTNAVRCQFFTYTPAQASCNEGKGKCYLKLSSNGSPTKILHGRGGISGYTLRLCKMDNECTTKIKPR

In the case of `O=C(Nc1cnn(Cc2cnc(N3CCC3)cn2)c1)c1cncc(-c2c(C(F)F)ccc(Cl)c2F)n1` [Example 13, N-(1-((5-(Azetidin-1-yl)pyrazin-2-yl)methyl)-1H-pyrazol-4-yl)-6-(3-chloro-6-(difluoromethyl)-2-fluorophenyl)pyrazine-2-carboxamide], the IC50 (human factor XIa) is reported as 1840 nM and the IC50 (Human plasma kallikrein) is reported as 7.2 nM.
`O=C(Nc1cnn(Cc2cnc(N3C[C@H]4C[C@H]4[C@H]3CNCC(O)C(F)F)nc2)c1)c1cncc(-c2c(C(F)F)ccc(Cl)c2F)n1` (stereo partly drawn) [Example 150, 6-(3-Chloro-6-(difluoromethyl)-2-fluorophenyl)-N-(1-((2-((1R,2S,5S)-2-(((3,3-difluoro-2-hydroxypropyl)amino)methyl)-3-azabicyclo[3.1.0]hexan-3-yl)pyrimidin-5-yl)methyl)-1H-pyrazol-4-yl)pyrazine-2-carboxamide] showed an IC50 (human factor XIa) of 650 nM and an IC50 (Human plasma kallikrein) of 0.6 nM.
With `CC(c1cnc(N2CC[C@H]2CN2CC(C(C)(C)O)C2)nc1)n1cc(NC(=O)c2cncc(-c3c(C(F)F)ccc(Cl)c3F)n2)cn1` (stereo partly drawn) [Example 175, 6-(3-Chloro-6-(difluoromethyl)-2-fluorophenyl)-N-(1-(1-(2-((S)-2-((3-(2-hydroxypropan-2-yl)azetidin-1-yl)methyl)azetidin-1-yl)pyrimidin-5-yl)ethyl)-1H-pyrazol-4-yl)pyrazine-2-carboxamide] the IC50 (human factor XIa) was 5080 nM and the IC50 (Human plasma kallikrein) was 0.6 nM.
Work on `C[C@@H](O)c1ncc(-c2c(C(F)F)ccc(Cl)c2F)nc1C(=O)Nc1cnn(Cc2cnc(N3CCC3)nc2)c1` (single isomer, unassigned) [Example 135] yielded an IC50 (human factor XIa) of 120 nM and an IC50 (Human plasma kallikrein) of 2.8 nM.
For `CC(c1cnc(N2CC[C@H]2CN2C[C@@H](O)[C@H](F)C2)nc1)n1cc(NC(=O)c2cncc(-c3c(C(F)F)ccc(Cl)c3F)n2)cn1` (stereo partly drawn) [Example 169, 6-(3-Chloro-6-(difluoromethyl)-2-fluorophenyl)-N-(1-(1-(2-((S)-2-(((3R,4R)-3-fluoro-4-hydroxypyrrolidin-1-yl)methyl)azetidin-1-yl)pyrimidin-5-yl)ethyl)-1H-pyrazol-4-yl)pyrazine-2-carboxamide], the IC50 (human factor XIa) was 9180 nM and the IC50 (Human plasma kallikrein) was 1.5 nM.
In the case of `C[C@H](c1cnc(N2CCC2)nc1)n1cc(NC(=O)c2cncc(-c3c(C(F)(F)F)ccc(Cl)c3F)n2)cn1` (single isomer, unassigned) [Example 54], the IC50 (human factor XIa) is reported as 3030 nM and the IC50 (Human plasma kallikrein) is reported as 25.7 nM.
`O=C(Nc1cnn(S(=O)(=O)c2ccc(N3CCC3)nc2)c1)c1cncc(-c2c(C(F)F)ccc(Cl)c2F)n1` [Example 26, N-(1-((6-(Azetidin-1-yl)pyridin-3-yl)sulfonyl)-1H-pyrazol-4-yl)-6-(3-chloro-6-(difluoromethyl)-2-fluorophenyl)pyrazine-2-carboxamide] was tested, and the IC50 (human factor XIa) was 5350 nM and the IC50 (Human plasma kallikrein) was 45.9 nM.
In the case of `CCc1ncc(-c2c(C(F)F)ccc(Cl)c2F)nc1C(=O)Nc1cnn(Cc2cnc(N3CCC3)nc2)c1` [Example 14, N-(1-((2-(Azetidin-1-yl)pyrimidin-5-yl)methyl)-1H-pyrazol-4-yl)-6-(3-chloro-6-(difluoromethyl)-2-fluorophenyl)-3-ethylpyrazine-2-carboxamide], the IC50 (human factor XIa) is reported as 312 nM and the IC50 (Human plasma kallikrein) is reported as 8 nM.
`NC(=O)[C@H]1CCCN1c1ncc(Cn2cc(NC(=O)c3cncc(-c4c(C(F)F)ccc(Cl)c4F)n3)cn2)cn1` [Example 97, (R)-N-(1-((2-(2-Carbamoylpyrrolidin-1-yl)pyrimidin-5-yl)methyl)-1H-pyrazol-4-yl)-6-(3-chloro-6-(difluoromethyl)-2-fluorophenyl)pyrazine-2-carboxamide] gave an IC50 (human factor XIa) of 8930 nM and an IC50 (Human plasma kallikrein) of 26.9 nM.
In the case of `C[C@H](O)[C@H]1[C@H]2C[C@H]2CN1c1ncc(Cn2cc(NC(=O)c3cncc(-c4c(C(F)F)ccc(Cl)c4F)n3)cn2)cn1` [Example 84, 6-(3-Chloro-6-(difluoromethyl)-2-fluorophenyl)-N-(1-((2-((1S,2R,5R)-2-((S)-1-hydroxyethyl)-3-azabicyclo[3.1.0]hexan-3-yl)pyrimidin-5-yl)methyl)-1H-pyrazol-4-yl)pyrazine-2-carboxamide], the IC50 (human factor XIa) is reported as 7240 nM and the IC50 (Human plasma kallikrein) is reported as 11.3 nM.
`O=C(Nc1cnn(Cc2cnc(N3CCC3)nc2)n1)c1cncc(-c2c(C(F)F)ccc(Cl)c2F)n1` [Example 25, N-(2-((2-(Azetidin-1-yl)pyrimidin-5-yl)methyl)-2H-1,2,3-triazol-4-yl)-6-(3-chloro-6-(difluoromethyl)-2-fluorophenyl)pyrazine-2-carboxamide] was tested, and the IC50 (human factor XIa) was 6090 nM and the IC50 (Human plasma kallikrein) was 41.3 nM.
Work on `CC(c1cnc(N2CC[C@H]2CN2CC(O)(C(C)C)C2)nc1)n1cc(NC(=O)c2cncc(-c3c(C(F)F)ccc(Cl)c3F)n2)cn1` (stereo partly drawn) [Example 173, 6-(3-Chloro-6-(difluoromethyl)-2-fluorophenyl)-N-(1-(1-(2-((S)-2-((3-hydroxy-3-isopropylazetidin-1-yl)methyl)azetidin-1-yl)pyrimidin-5-yl)ethyl)-1H-pyrazol-4-yl)pyrazine-2-carboxamide] yielded an IC50 (human factor XIa) of 8920 nM and an IC50 (Human plasma kallikrein) of 1 nM.
Molecule `COc1ncc(-c2c(C(F)F)ccc(Cl)c2F)nc1C(=O)Nc1cnn(Cc2cnc(N3CCC3)nc2)c1` [Example 1, N-(1-((2-(Azetidin-1-yl)pyrimidin-5-yl)methyl)-1H-pyrazol-4-yl)-6-(3-chloro-6-(difluoromethyl)-2-fluorophenyl)-3-methoxypyrazine-2-carboxamide] has an IC50 (human factor XIa) of 921 nM and an IC50 (Human plasma kallikrein) of 10.2 nM.
With `C[C@@H](c1cnc(N2CC(F)C2)nc1)n1cc(NC(=O)c2cncc(-c3c(C(F)F)ccc(Cl)c3F)n2)cn1` [Example 92, (S)-6-(3-Chloro-6-(difluoromethyl)-2-fluorophenyl)-N-(1-(1-(2-(3-fluoroazetidin-1-yl)pyrimidin-5-yl)ethyl)-1H-pyrazol-4-yl)pyrazine-2-carboxamide] the IC50 (human factor XIa) was 5020 nM and the IC50 (Human plasma kallikrein) was 18.5 nM.
Work on `C[C@H](c1cnc(N2CCC2)nc1)n1cc(NC(=O)c2cncc(-c3c(C(F)F)ccc(Cl)c3F)n2)cn1` (single isomer, unassigned) [Example 4] yielded an IC50 (human factor XIa) of 1320 nM and an IC50 (Human plasma kallikrein) of 23.1 nM.
With `O=C(O)c1ncc(-c2c(C(F)F)ccc(Cl)c2F)nc1C(=O)Nc1cnn(Cc2cnc(N3CCC3)nc2)c1` [Example 137, 3-((1-((2-(Azetidin-1-yl)pyrimidin-5-yl)methyl)-1H-pyrazol-4-yl)carbamoyl)-5-(3-chloro-6-(difluoromethyl)-2-fluorophenyl)pyrazine-2-carboxylic acid] the IC50 (human factor XIa) was 4100 nM and the IC50 (Human plasma kallikrein) was 21.2 nM.
With `C[C@H](CO)NC[C@@H]1[C@@H]2C[C@@H]2CN1c1ncc(Cn2cc(NC(=O)c3cncc(-c4c(C(F)F)ccc(Cl)c4F)n3)cn2)cn1` [Example 143, 6-(3-Chloro-6-(difluoromethyl)-2-fluorophenyl)-N-(1-((2-((1R,2S,5S)-2-((((R)-1-hydroxypropan-2-yl)amino)methyl)-3-azabicyclo[3.1.0]hexan-3-yl)pyrimidin-5-yl)methyl)-1H-pyrazol-4-yl)pyrazine-2-carboxamide] the IC50 (human factor XIa) was 528 nM and the IC50 (Human plasma kallikrein) was 0.4 nM.
Work on `CC(c1ccc(N2CCC2)nc1)n1cc(NC(=O)c2cncc(-c3c(C(F)F)ccc(Cl)c3F)n2)cn1` (single isomer, unassigned) [Example 37, (S or R)-N-(1-(1-(6-(azetidin-1-yl)pyridin-3-yl)ethyl)-1H-pyrazol-4-yl)-6-(3-chloro-6-(difluoromethyl)-2-fluorophenyl)pyrazine-2-carboxamide] yielded an IC50 (human factor XIa) of 2700 nM and an IC50 (Human plasma kallikrein) of 25.6 nM.
